Assay results reported in patent publication US20240358015A1, “HERBICIDAL COMPOSITIONS” (Agrematch Ltd., priority 2021, published 2024).

Columns and labels:
S. nigrum = assay: Growth-chamber post-emergence assay on various weed species (Example 7); format: in vivo, Solanum nigrum; settings: 0.05% Break-Thru
Description: (§1) Herbicidal activity of Compound 1 was determined by post-emergence application on various weed species. 8-14 day old plants (weeds) were grown at 16 hours/8 hours day/night cycles at 30° C./25° C., respectively. Leaf stage was typically 2-6.
(§2) In each treatment, 3 pots (either 7×7 or 8×12 cm), containing about 3-6 plants each, were sprayed using a VL-SET Paasche Airbrush with a 1-1.5 ml-solution containing 0.5-1.5 mg/ml of the tested compound, which is equivalent to about 500-1500 g/ha.
(§3) Damage assessment: Herbicidal activity was assessed and scored 3-4 days after application by visual inspection of the plants in comparison to plants treated with the formulation alone (with no active ingredient) as control. Activity score is in the range of 0 to 100, where 0 represents no herbicidal activity like control plants and 100 represents the maximal herbicidal activity (i.e., total death of the plant).

Sensitive A. rudis = assay: Net-house assay with resistant weeds (Example 9); format: in vivo, Amaranthus rudis; settings: 1,500 g/ha, 13 days after application, scale 0-100
Description: (§4) Herbicidal activity of Compound 1 was determined by post-emergence application in both Growth-chamber and Net-house conditions. Growing conditions were as described in Examples 6 and 8 above.
(§5) The assay was performed on 13-15 day old plants (weeds) of Amaranthus rudis that were either target-site resistant or sensitive to HRAC class 5. In each treatment, 3 pots (8×12 cm), containing about 6 Amaranthus Rudis plants, were sprayed using a VL-SET Paasche Airbrush with a 1 ml-solution.
(§6) Damage assessment: Herbicidal activity was assessed and scored 13 days after application by visual inspection of the plants in comparison to plants treated with the formulation alone (with no active ingredient) as control. Activity score is in the range of 0 to 100, where 0 represents no herbicidal activity like control plants and 100 represents the maximal herbicidal activity (i.e., total death of the plant).

[1] = test system: Resistant A. rudis (target-site resistant to HRAC class 5); assay: Net-house assay with resistant weeds (Example 9); format: in vivo, Amaranthus rudis; settings: 1,500 g/ha, 13 days after application, scale 0-100
Description: as §4, §5, §6

X. strumarium = assay: Growth-chamber post-emergence assay on various weed species (Example 7); format: in vivo, Xanthium strumarium; settings: 1500 g/ha; 0.8% MIPA, 0.25% Genapol, 2% HASTEN, 0.05% Break-Thru
Description: as §1, §2, §3

Amaranthus palmeri [2] = assay: Growth-chamber post-emergence herbicidal assay (Example 2); format: in vivo
Description: (§7) Herbicidal activity was determined by post-emergence application on 8-day old plants (weeds) of the Amaranthus palmeri and Setaria viridis species that were grown at 16 hours/8 hours day/night cycles at 30° C./25° C., respectively. Leaf stage was typically 4-6 for A. palmeri and 3-4 for S. viridis.
(§8) In each treatment, 2-3 pots, each containing about 5 plants each (for Setaria viridis), and one 9-pack, containing about 9 plants (for Amaranthus palmeri), were sprayed using a VL-SET Paasche Airbrush with 0.3-1.5 ml solution containing 0.125-2 mg/ml of a tested compound, which is equivalent to about 125-2000 g/ha.
as §3
Formulation design: Compounds were tested on A. Palmeri in various formulations, and in varying concentrations for each of the tested formulations, in order to determine optimal conditions for its application and performance. Activity scores were determined as described hereinabove. Solubility scores were determined by visual inspection on a scale of 1-10, with 10 representing complete solubilization and 1 represents nullified solubilization.
Each of the obtained solution was then mixed with different adjuvants and applied at a rate equivalent to 500 g/ha for A. palmeri and 1000 g/ha for S. viridis. Herbicidal activity scores 3-4 days after application are presented Table 3 below.

T. vulgare = assay: Growth-chamber post-emergence assay on various weed species (Example 7); format: in vivo; settings: 500 g/ha; 0.8% MIPA, 0.25% Genapol, 1% AGNIQUE, 0.05% Ca-LAS, 0.02% BSU, 0.05% Break-Thru
Description: as §1, §2, §3

D. ferox = assay: as above; format: in vivo; settings: 1500 g/ha; 0.8% MIPA, 0.25% Genapol, 2% HASTEN, 0.05% Break-Thru
Description: as §1, §2, §3

S. alba = assay: as above; format: in vivo; settings: 500 g/ha; 0.8% MIPA, 0.25% Genapol, 1% AGNIQUE, 0.05% Ca-LAS, 0.02% BSU, 0.05% Break-Thru
Description: as §1, §2, §3

A. retroflexus = assay: as above; format: in vivo; settings: 500 g/ha; 0.8% MIPA, 0.25% Genapol, 1% AGNIQUE, 0.05% Ca-LAS, 0.02% BSU, 0.05% Break-Thru
Description: as §1, §2, §3

Setaria viridis = assay: Growth-chamber post-emergence herbicidal assay (Example 2); format: in vivo; settings: 1000 g/ha, 3-4 days after application
Description: as §7, §8, §3
Herbicidal activity scores 3-4 days after application are presented Table 3 below.

Amaranthus palmeri [3] = assay: Net-house post-emergence assay (Example 6); format: in vivo; settings: 750 g/ha, 0.05% MIPA
Description: Post-emergence herbicidal activity was tested on Amaranthus palmeri weeds species that were grown in a net-house. Average daily minimum and maximum temperatures during the assay were 20.5° C./[…], respectively. Leaf stage at the time of application was 3-4. In each treatment, 3 flowerpots (7 cm×7 cm×6 cm) containing about 3-6 plants, were sprayed using a VL-SET Paasche Airbrush with a […] 0.75 mg/ml of the tested compound, which is equivalent to 750 g/ha.
Damage assessment: Herbicidal activity was assessed and scored 1-12 days after application by visual inspection of the plants in comparison to plants treated with the formulation alone (with no active ingredient) as control. Activity score is in the range of 0 to 100, where 0 represents no herbicidal activity like control plants and 100 represents the maximal herbicidal activity (i.e., total death of the plant).

O=C(O)c1cc(O)c2c(c1)C(=O)c1cccc(O)c1C2=O [Compound 1, Rhein] was tested, and the Herbicidal activity score (S. nigrum; 750 g/ha, 0.2% MIPA, 2% TWEEN20, 1% AGNIQUE, 0.05% Ca-LAS, 0.02% BSU) was 95, the Herbicidal activity score (S. nigrum; 1500 g/ha, 0.8% MIPA, 0.25% Genapol, 2% HASTEN) was 100 and the Herbicidal activity score (Sensitive A. rudis) was 100. The Herbicidal activity score [1] was 100, the Herbicidal activity score (X. strumarium) was 90 and the Herbicidal activity score (Amaranthus palmeri [2]; 500 g/ha, 0.5 mg/ml in 0.007% Ammonium hydroxide, 0.25% Adsee, 3-4 days after application) was 30. For the same compound, the Herbicidal activity score (Amaranthus palmeri [2]; 500 g/ha, 0.5 mg/ml in 0.007% Ammonium hydroxide, 0.25% Genapol X-080, 3-4 days after application) was 50, the Herbicidal activity score (Amaranthus palmeri [2]; 500 g/ha, 0.5 mg/ml in 0.007% Ammonium hydroxide, 0.7% Sodium Lauryl Ether sulfate, 3-4 days after application) was 85 and the Herbicidal activity score (Amaranthus palmeri [2]; 500 g/ha, 0.5 mg/ml in 0.007% Ammonium hydroxide, 1% AGNIQUE, 0.05% Ca-LAS, 0.02% BSU, 3-4 days after application) was 70. It also gave a Herbicidal activity score (Amaranthus palmeri [2]; 500 g/ha, 0.5 mg/ml in 0.007% Ammonium hydroxide, 2% Tween 20, 3-4 days after application, scale 0-100) of 60, a Herbicidal activity score (Amaranthus palmeri [2]; 500 g/ha, 0.5 mg/ml in 0.019% MIPA, 0.25% Adsee, 3-4 days after application) of 80 and a Herbicidal activity score (Amaranthus palmeri [2]; 500 g/ha, 0.5 mg/ml in 0.019% MIPA, 0.25% Genapol X-080, 3-4 days after application) of 70. The Herbicidal activity score (Amaranthus palmeri [2]; 500 g/ha, 0.5 mg/ml in 0.019% MIPA, 0.7% Sodium Lauryl Ether sulfate, 3-4 days after application) was 90, the Herbicidal activity score (Amaranthus palmeri [2]; 500 g/ha, 0.5 mg/ml in 0.019% MIPA, 1% AGNIQUE, 0.05% Ca-LAS, 0.02% BSU, 3-4 days after application) was 80 and the Herbicidal activity score (Amaranthus palmeri [2]; 500 g/ha, 0.5 mg/ml in 0.019% MIPA, 2% Tween 20, 3-4 days after application) was 95. For the same compound, the “Activity Score” value (Amaranthus palmeri [2]; 500 g/ha, 2% TWEEN 20, 5 mM MIPA, 1% AGNIQUE, 0.05% Ca-LAS, 0.02% BSU, 0.05% Break-Thru) was 95, the “Activity Score” value (Amaranthus palmeri [2]; 1000 g/ha, 1% TWEEN 80, 0.05M Tris buffer pH 8, 0.05% Break-Thru, 3-4 days after application, scale 0-100) was 100 and the “Activity Score” value (Amaranthus palmeri [2]; 1500 g/ha, 4% TWEEN 20, 0.05M Tris buffer pH 8, 0.05% Break-Thru) was 95. The “Activity Score” value (Amaranthus palmeri [2]; 2000 g/ha, 1% TWEEN 80, 0.05M Tris buffer pH 8, 0.05% Break-Thru) was 95, the Herbicidal activity score (T. vulgare) was 10 and the Herbicidal activity score (D. ferox) was 95. For the same compound, the Herbicidal activity score (S. alba) was 80, the Herbicidal activity score (A. retroflexus) was 85 and the Herbicidal activity score (Setaria viridis; 1 mg/ml in 0.015% Ammonium hydroxide, 0.25% Adsee) was 10. For the same compound, the Herbicidal activity score (Setaria viridis; 1 mg/ml in 0.015% Ammonium hydroxide, 0.25% Genapol X-080) was 70, the Herbicidal activity score (Setaria viridis; 1 mg/ml in 0.015% Ammonium hydroxide, 0.7% Sodium Lauryl Ether sulfate) was 100 and the Herbicidal activity score (Setaria viridis; 1 mg/ml in 0.015% Ammonium hydroxide, 1% AGNIQUE, 0.05% Ca-LAS, 0.02% BSU) was 70. It also gave a Herbicidal activity score (Setaria viridis; 1 mg/ml in 0.015% Ammonium hydroxide, 2% Tween 20, scale 0-100) of 80, a Herbicidal activity score (Setaria viridis; 1 mg/ml in 0.037% MIPA, 0.25% Adsee) of 40 and a Herbicidal activity score (Setaria viridis; 1 mg/ml in 0.037% MIPA, 0.25% Genapol X-080) of 100. For the same compound, the Herbicidal activity score (Setaria viridis; 1 mg/ml in 0.037% MIPA, 0.7% Sodium Lauryl Ether sulfate) was 100, the Herbicidal activity score (Setaria viridis; 1 mg/ml in 0.037% MIPA, 1% AGNIQUE, 0.05% Ca-LAS, 0.02% BSU) was 70 and the Herbicidal activity score (Setaria viridis; 1 mg/ml in 0.037% MIPA, 2% Tween 20) was 100. For the same compound, the “Activity Score” value (Setaria viridis; 2% TWEEN 20, 5.2 mM Ammonium hydroxide, 0.05% Break-Thru, scale 0-100) was 90, the Herbicidal activity score (Amaranthus palmeri [3]; 2% Hasten, 0.05% Break-Thru, 1 DAT) was 95 and the Herbicidal activity score (Amaranthus palmeri [3]; 2% Hasten, 0.05% Break-Thru, 3 DAT) was 95. It also gave a Herbicidal activity score (Amaranthus palmeri [3]; 2% Hasten, 0.05% Break-Thru, 5 DAT) of 90, a Herbicidal activity score (Amaranthus palmeri [3]; 2% Hasten, 0.05% Break-Thru, 7 DAT) of 90 and a Herbicidal activity score (Amaranthus palmeri [3]; 2% Hasten, 0.05% Break-Thru, 12 DAT) of 80. For the same compound, the Herbicidal activity score (Amaranthus palmeri [3]; 2% TWEEN20, 0.05% Break-Thru, 1 DAT, scale 0-100) was 95, the Herbicidal activity score (Amaranthus palmeri [3]; 2% TWEEN20, 0.05% Break-Thru, 3 DAT) was 100 and the Herbicidal activity score (Amaranthus palmeri [3]; 2% TWEEN20, 0.05% Break-Thru, 5 DAT) was 100. For the same compound, the Herbicidal activity score (Amaranthus palmeri [3]; 2% TWEEN20, 0.05% Break-Thru, 7 DAT) was 100 and the Herbicidal activity score (Amaranthus palmeri [3]; 2% TWEEN20, 0.05% Break-Thru, 12 DAT) was 100.
